Tests used:
Type in all cases: in vivo
[1] = test system: mice; conditions: mice n = 15; Bu-Nao-Gao oral 4 g/Kg daily, cyclophosphomide 0.03 g/kg i.m. every other day
Experimental: Mice were given Bu-Nao-Gao (oral at 4 g/Kg daily), or cyclophosphomide (0.03 g/kg, intramuscularly every other day) or saline (oral, daily). On day 3, mice were given 0.02 ml of 7% DNCB subcutaneously on the back, and were boosted three days later in the same way. 9 days later, 0.02 ml of 1% DNCB was applied to the left ear. This area was removed by a ear puncher of 9 mm diameter and the extent of ear swelling represents the extent of delayed-type hypersensitivity (for results, see Table 6).

[2] = test system: mice; assay: Effects on the weight of immune organs; conditions: mice n = 15, 7 days; Bu-Nao-Gao 4 g/Kg orally, hydrocortisone 50 mg/Kg intramuscularly
Experimental: Mice were randomly distributed, and were given Bu-Nao-Gao (4 g/Kg) orally, or hydrocortison (50 mg/Kg) or saline intramuscularly, for seven days. 24 hours after the last administration, mice were sacrificed.

[3] = test system: mice; assay: Effects on antibody production in mice (sheep erythrocyte immunization); conditions: mice n = 15, immunized with 10% sheep erythrocytes day 2, measured day 8; Bu-Nao-Gao 4 g/Kg orally, hydrocortisone 50 mg/Kg i.m., 7 days
Experimental: Mice were randomly distributed, and were given Bu-Nao-Gao (4 g/Kg) orally, or hydrocortison (50 mg/Kg) or saline intramuscularly, for seven days. On day 2, they were immunized with 10% sheep erythrocytes intra-peritoneally. On day 8, erythrocyte agglutination as well as cell lysis were measured respectively.

Row | SMILES | DNCB (extent of swolleness) [1] | Index of immune organ (mg/g X +/− SD), Spleen [2] [mg/g] | Index of immune organ (mg/g X +/− SD), thymus [2] [mg/g] | Agglutinin (33) (HC50) [3] | Erythorcytolysin (32) [3]
1 | O=P1(N(CCCl)CCCl)NCCCO1 (centres unmarked) [cyclo-phosphamidum, cyclophosphomide] | 12.26 +/− 8.8 |  |  |  | 
2 | C[C@]12CCC(=O)C=C1CC[C@@H]1[C@@H]2[C@@H](O)C[C@@]2(C)[C@H]1CC[C@]2(O)C(=O)CO [Hydrocortisone] |  | 2.66 ± 0.40 | 1.37 ± 0.26 | 126.7 +/− 19.3 | 37.5 +/− 4.2
